Data on one compound can be found in US8895579B2, “Heterotricyclic AMPA receptor antagonists for treatment of epilepsy, pain, and other neurological disorders and diseases” (Northwestern University, priority 2010, dated 2014).

The target of experiment [1] is T1, GluK1-2b (Rattus norvegicus, UniProt P22756).
T1 construct: myc; expressed in transfected cells; host or cells: HEK293-T/17 (CRL-11268)
Description: [3H]-KA radioligand binding, membranes of HEK293-T/17 cells expressing GluK1-2b. The conditions noted are these: 10 nM [3H]-KA, 1 h at 4° C., read-out: [3H]KA bound as percent of total (specific) binding in absence of competing ligand. On the procedure:
Radioligand binding. HEK293-T/17 cells were transfected with 5 μg of iGluR cDNA in 100 mm^2 culture dishes. Two days post transfection, the plates were washed twice with ice-cold Dulbecco's phosphate-buffered saline (DPBS) and then incubated with 50 mM Tris (pH 7.4) and 1 mM EDTA for three minutes on ice. Cells were collected and centrifuged for five minutes at 800 g at room temperature. The cell pellet was homogenized in 50 mM Tris (pH 7.4) containing 320 mM sucrose (homogenization buffer, HB) on ice using a glass dounce homogenizer and centrifuged at 4° C. for 10 minutes at 800 g. The supernatant, containing the membrane fragments, was saved and the remaining pellet containing nuclei and unbroken cells was resuspended in HB. This homogenization process was repeated two more times and after collection of the final resulting supernatant, the remaining pellet was discarded. The collected supernatants were centrifuged at 4° C. for 20 minutes at 20000 g and the resulting supernatant was discarded leaving a membrane-containing pellet. […] Non-specific binding was determined as the amount of radioligand bound in the presence of a saturating concentration of glutamate (1 mM). Total binding was determined as the amount of radioligand bound in the absence of any competing ligands minus the non-specific binding. […]

The test system of experiment [2] is primary hippocampal neurons. Description: In vitro model of status epilepticus (Mg2+ removal, 2 μM glycine), action potential firing in hippocampal neurons. It is filed as cell-based. The protocol:
Experiments involving primary hippocampal neurons were carried out as described previously (Vivithanaporn et al., 2007). Dissociated neurons were cultured from E18 prenatal hippocampi and were used for analysis from between 17 and 28 days in vitro. The extracellular solution was the same as used for recombinant receptor analysis, while the internal solution for voltage clamp recordings contained (in mM) 95 CsF, 25 CsCl, 10 Cs-HEPES, 10 EGTA, 2 NaCl, 2 Mg-ATP, 10 QX-314, 5 TEA. and 5 4-AP (pH 7.3) and the internal solution for current clamp recordings contained (in mM) 120 KMeSO4, 5 KCl, 5 NaCl, 1 MgCl2, 11 Na-HEPES, 10 phosphocreatine, 4 Na-ATP, and 0.3 Na-GTP (pH 7.0). Borosilicate patch electrodes were pulled and fire polished to 3-5 MΩ resistance. Both whole cell current clamp and voltage clamp recordings were performed using an Axopatch 200B amplifier (MDS, Sunnyvale, Calif.) and filtered at 20 kHz. Gigaohm seals were established in voltage clamp mode and, after membrane rupture, the recordings were carried out either in voltage clamp (clamped at Vm=−70 mV) with a […] series resistance, which was compensated to ˜60%, or in current clamp mode ([…]) with the bridge balance was corrected and pipette resistance neutralized. In vitro status epilepticus (SE) was induced as described previously (Deshpande et al., 2007; Pal et al., 1999) and action potentials were recorded in current clamp mode. Briefly for in vitro SE, magnesium-containing external solution was exchanged for external solution without magnesium and supplemented with 2 μM glycine. This solution exchange produced a period of rapid depolarization and increased AP firing, followed by a period of channel inactivation and reduced AP firing. After channel inactivation, neurons characteristically would hyperpolarize to hold at a membrane voltage (Vm) which was depolarized relative to control Vm, with an increase in AP firing frequency. […] External solutions were bath-applied at a flow rate of 1.5-2 ml/minute. After recording a basal control period, IKM compounds were applied for five minutes (10 minutes for in vitro SE experiments) and changes in excitatory post-synaptic current (EPSC) charge transfer or action potential (AP) frequency were analyzed during the last two minutes of IKM application.
Several AMPA receptor selective antagonists reduce neuronal hyperactivity in both acute brain slice preparations and in in vitro models of epilepsy (Grasso et al., 1999; Szabados et al., 2001). […] We therefore tested the efficacy of IKM-159 in reducing the hyperactive neuronal phenotype in dissociated hippocampal neurons using an in vitro model of status epilepticus (SE) (Deshpande et al., 2007; Pal et al., 1999). […]

Each structure is given as a SMILES string.

T1 sequence (P22756 31-905 isoform P22756-2 limits assumed): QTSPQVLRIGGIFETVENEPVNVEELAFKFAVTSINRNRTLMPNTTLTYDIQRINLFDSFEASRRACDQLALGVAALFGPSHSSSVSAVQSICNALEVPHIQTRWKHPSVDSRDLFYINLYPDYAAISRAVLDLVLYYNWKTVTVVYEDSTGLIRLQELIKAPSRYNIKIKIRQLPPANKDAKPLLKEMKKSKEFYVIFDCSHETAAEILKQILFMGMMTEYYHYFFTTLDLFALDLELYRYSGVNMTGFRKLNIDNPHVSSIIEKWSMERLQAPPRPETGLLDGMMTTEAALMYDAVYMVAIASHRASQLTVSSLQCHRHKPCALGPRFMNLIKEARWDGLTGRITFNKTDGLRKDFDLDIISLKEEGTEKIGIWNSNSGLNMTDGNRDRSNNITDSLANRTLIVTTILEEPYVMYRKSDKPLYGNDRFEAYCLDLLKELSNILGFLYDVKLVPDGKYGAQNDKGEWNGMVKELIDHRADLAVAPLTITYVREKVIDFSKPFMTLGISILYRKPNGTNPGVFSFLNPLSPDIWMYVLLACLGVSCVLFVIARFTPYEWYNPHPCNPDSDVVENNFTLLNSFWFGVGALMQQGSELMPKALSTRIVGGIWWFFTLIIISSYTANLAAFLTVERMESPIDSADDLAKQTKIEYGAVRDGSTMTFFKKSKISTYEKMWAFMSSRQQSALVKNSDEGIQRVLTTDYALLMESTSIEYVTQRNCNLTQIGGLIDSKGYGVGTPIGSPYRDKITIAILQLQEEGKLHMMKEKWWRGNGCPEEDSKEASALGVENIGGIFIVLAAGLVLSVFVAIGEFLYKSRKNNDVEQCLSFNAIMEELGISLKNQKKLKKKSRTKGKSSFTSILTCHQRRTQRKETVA

For the compound `O=C(O)C[C@@]12O[C@H]3C=CCN[C@H]3C1CN[C@H]2C(=O)O` (stereo partly shown) [IKM-159], in experiment [1], the activity at 100 µM is 105 ± 5%. In addition, the “AP firing frequency in SE condition with compound” value came out at 4.3±1.7 Hz in experiment [2] (3 μM, SE condition 5.7±1.2 Hz, n.s.) and 0.9±0.3 Hz in experiment [2] (20 μM, SE condition 2.3±0.4 Hz). Besides, in experiment [2] (20 μM, 10 minutes after removal), the “AP firing frequency upon wash out of compound” value worked out at 1.0±0.3 Hz.
